Results published in ChEMBL document CHEMBL1128274, “6-Aminoquinolones: a new class of quinolone antibacterials?” (1995).
Converted amounts (≈) assume the structure as drawn.

How the values were obtained:
Format in all cases: functional
[1] = test system: Escherichia coli; experiment: Tested in vitro for inhibitory activity against gram negative bacteria Escherichia coli ISF 432 cell lines at 5.8 ug/mL
[2] = test system: Escherichia coli; experiment: Tested in vitro for inhibitory activity against gram negative bacteria Escherichia coli ATCC 8739 cell lines at 5.8 ug/mL
[3] = test system: Pseudomonas aeruginosa; experiment: Tested in vitro for inhibitory activity against gram negative bacteria Pseudomonas aeruginosa ATCC 9027 strain
[4] = test system: Enterobacter cloacae; experiment: Tested in vitro for inhibitory activity against gram negative bacteria Enterobacter cloacae OMNFI 174 strain.
[5] = test system: Staphylococcus aureus; experiment: Tested in vitro for inhibitory activity against gram positive bacteria Staphylococcus aureus MPR 5 strain
[6] = test system: Enterococcus faecalis; experiment: Tested in vitro for inhibitory activity against gram positive bacteria Streptococcus faecalis LEP Br strain
[7] = test system: Providencia stuartii; experiment: Tested in vitro for inhibitory activity against gram negative bacteria Providencia stuartii CNUR 5 strain
[8] = test system: Acinetobacter calcoaceticus; experiment: Tested in vitro for inhibitory activity against gram negative bacteria Acinetobacter calcoaceticus OSMPV 113 strain.
[9] = test system: Shigella; experiment: Tested in vitro for inhibitory activity against gram negative bacteria Shigella enteritidis
[10] = test system: Staphylococcus aureus; experiment: Tested in vitro for inhibitory activity against gram positive bacteria Staphylococcus aureus ATCC 6538 strain
[11] = test system: Staphylococcus epidermidis; experiment: Tested in vitro for inhibitory activity against gram positive bacteria Staphylococcus epidermidis HCF berset C strain
[12] = test system: Staphylococcus epidermidis; experiment: Tested in vitro for inhibitory activity against gram positive bacteria Staphylococcus epidermidis CPHL A2 strain
[13] = test system: Klebsiella pneumoniae; experiment: Tested in vitro for inhibitory activity against gram negative bacteria Klebsiella pneumoniae ATCC 10031 strain
[14] = test system: Providencia stuartii; experiment: Tested in vitro for inhibitory activity against gram negative bacteria Providencia stuartii CNUR 5 cell lines
[15] = test system: Escherichia coli; experiment: Tested in vitro for inhibitory activity against gram negative bacteria Escherichia coli ISF 432 strain.
[16] = test system: Escherichia coli; experiment: Tested in vitro for inhibitory activity against gram negative bacteria Escherichia coli ATCC 8739 strain
[17] = Minimum concentration at which cleaved linear DNA is observed
[18] = test system: Escherichia coli; experiment: Tested in vitro for inhibitory activity against gram negative bacteria Escherichia coli ISF 432 cell lines at 10 ug/mL
[19] = test system: Escherichia coli; experiment: Tested in vitro for inhibitory activity against gram negative bacteria Escherichia coli ATCC 8739 cell lines at 10 ug/mL
[20] = test system: Escherichia coli; experiment: Tested in vitro for inhibitory activity against gram negative bacteria Escherichia coli ATCC 8739 cell lines
[21] = test system: Escherichia coli; experiment: Tested in vitro for inhibitory activity against gram negative bacteria Escherichia coli ISF 432 strain at 25 ug/mL
[22] = test system: Escherichia coli; experiment: Tested in vitro for inhibitory activity against gram negative bacteria Escherichia coli ATCC 8739 strain at 25 ug/mL

Row | MIC [3] | MIC [4] | MIC [5] | MIC [6] | MIC [7] | MIC [8] | MIC [9] | MIC [10] | MIC [11] | MIC [12] | MIC [13] | MIC [15] | MIC [20] | Structure (SMILES) | further results
1 | 4 µg/mL (≈ 11 µM) | 1 µg/mL (≈ 2.75 µM) | 0.25 µg/mL (≈ 0.688 µM) | 4 µg/mL (≈ 11 µM) | 0.5 µg/mL (≈ 1.38 µM) | 1 µg/mL (≈ 2.75 µM) | 4 µg/mL (≈ 11 µM) | 0.5 µg/mL (≈ 1.38 µM) | 1 µg/mL (≈ 2.75 µM) | 0.5 µg/mL (≈ 1.38 µM) | 0.03 µg/mL (≈ 0.0826 µM) | – | – | Nc1cc2c(=O)c(C(=O)O)cn(C3CC3)c2c(F)c1N1CCSCC1 | MIC [1]: 0.06 µg/mL (≈ 0.165 µM); MIC [2]: 0.12 µg/mL (≈ 0.33 µM)
2 | 128 µg/mL (≈ 459 µM) | 16 µg/mL (≈ 57.4 µM) | 128 µg/mL (≈ 459 µM) | 128 µg/mL (≈ 459 µM) | – | 128 µg/mL (≈ 459 µM) | 16 µg/mL (≈ 57.4 µM) | 128 µg/mL (≈ 459 µM) | 64 µg/mL (≈ 230 µM) | 128 µg/mL (≈ 459 µM) | 2 µg/mL (≈ 7.18 µM) | 2 µg/mL (≈ 7.18 µM) | – | Nc1cc2c(=O)c(C(=O)O)cn(C3CC3)c2cc1Cl | MIC [14]: 64 µg/mL (≈ 230 µM); MIC [16]: 2 µg/mL (≈ 7.18 µM)
3 | 4 µg/mL (≈ 11.1 µM) | 2 µg/mL (≈ 5.53 µM) | 0.25 µg/mL (≈ 0.692 µM) | 8 µg/mL (≈ 22.1 µM) | 4 µg/mL (≈ 11.1 µM) | 0.5 µg/mL (≈ 1.38 µM) | 2 µg/mL (≈ 5.53 µM) | 0.25 µg/mL (≈ 0.692 µM) | 0.5 µg/mL (≈ 1.38 µM) | 0.5 µg/mL (≈ 1.38 µM) | 0.03 µg/mL (≈ 0.083 µM) | – | – | CC(C)(C)n1cc(C(=O)O)c(=O)c2cc(N)c(N3CCSCC3)cc21 | MIC [1]: 0.03 µg/mL (≈ 0.083 µM); MIC [2]: 0.06 µg/mL (≈ 0.166 µM); Concentration [17]: 5.8 µg/mL
4 | 2 µg/mL (≈ 5.79 µM) | 0.5 µg/mL (≈ 1.45 µM) | 0.5 µg/mL (≈ 1.45 µM) | 8 µg/mL (≈ 23.2 µM) | 1 µg/mL (≈ 2.89 µM) | 1 µg/mL (≈ 2.89 µM) | 0.5 µg/mL (≈ 1.45 µM) | 0.5 µg/mL (≈ 1.45 µM) | 2 µg/mL (≈ 5.79 µM) | 1 µg/mL (≈ 2.89 µM) | 0.03 µg/mL (≈ 0.0868 µM) | – | – | Nc1cc2c(=O)c(C(=O)O)cn(C3CC3)c2cc1N1CCSCC1 | MIC [18]: 0.03 µg/mL (≈ 0.0868 µM); MIC [19]: 0.03 µg/mL (≈ 0.0868 µM)
5 | 128 µg/mL (≈ 358 µM) | 128 µg/mL (≈ 358 µM) | 128 µg/mL (≈ 358 µM) | 128 µg/mL (≈ 358 µM) | 128 µg/mL (≈ 358 µM) | 128 µg/mL (≈ 358 µM) | 128 µg/mL (≈ 358 µM) | 128 µg/mL (≈ 358 µM) | 128 µg/mL (≈ 358 µM) | 128 µg/mL (≈ 358 µM) | 32 µg/mL (≈ 89.5 µM) | 16 µg/mL (≈ 44.8 µM) | 16 µg/mL (≈ 44.8 µM) | CN1CCN(c2cc3c(c(N)c2N)c(=O)c(C(=O)O)cn3C2CC2)CC1 | –
6 | 128 µg/mL (≈ 428 µM) | 64 µg/mL (≈ 214 µM) | 128 µg/mL (≈ 428 µM) | 128 µg/mL (≈ 428 µM) | 128 µg/mL (≈ 428 µM) | 128 µg/mL (≈ 428 µM) | 64 µg/mL (≈ 214 µM) | 128 µg/mL (≈ 428 µM) | 128 µg/mL (≈ 428 µM) | 128 µg/mL (≈ 428 µM) | 2 µg/mL (≈ 6.68 µM) | 4 µg/mL (≈ 13.4 µM) | 2 µg/mL (≈ 6.68 µM) | Nc1cc2c(=O)c(C(=O)O)cn(C3CC3)c2cc1NC1CC1 | –
7 | 4 µg/mL (≈ 10.7 µM) | 0.12 µg/mL (≈ 0.32 µM) | 2 µg/mL (≈ 5.33 µM) | 4 µg/mL (≈ 10.7 µM) | 2 µg/mL (≈ 5.33 µM) | 2 µg/mL (≈ 5.33 µM) | 0.25 µg/mL (≈ 0.666 µM) | 2 µg/mL (≈ 5.33 µM) | 4 µg/mL (≈ 10.7 µM) | 4 µg/mL (≈ 10.7 µM) | 0.03 µg/mL (≈ 0.0799 µM) | 0.03 µg/mL (≈ 0.0799 µM) | 0.03 µg/mL (≈ 0.0799 µM) | CN1CCN(c2c(N)c(N)c3c(=O)c(C(=O)O)cn(C4CC4)c3c2F)CC1 | –
8 | 4 µg/mL (≈ 11.7 µM) | 0.25 µg/mL (≈ 0.73 µM) | 2 µg/mL (≈ 5.84 µM) | 32 µg/mL (≈ 93.5 µM) | 8 µg/mL (≈ 23.4 µM) | 4 µg/mL (≈ 11.7 µM) | 0.25 µg/mL (≈ 0.73 µM) | 2 µg/mL (≈ 5.84 µM) | 4 µg/mL (≈ 11.7 µM) | 2 µg/mL (≈ 5.84 µM) | 0.03 µg/mL (≈ 0.0876 µM) | – | – | CN1CCN(c2cc3c(cc2N)c(=O)c(C(=O)O)cn3C2CC2)CC1 | MIC [21]: 0.03 µg/mL (≈ 0.0876 µM); MIC [22]: 0.25 µg/mL (≈ 0.73 µM)
